In one assay the target is T1, HCN1 mutant F143A (Homo sapiens, UniProt O60741, F143A).
T1 construct: Full-length WT or mutant human HCN1 were cloned into the pcDNA3.1 vector; expressed in transfected cells; host or cells: HeLa cells, pcDNA3.1 vector, transient lipofection
T1 sequence (O60741 1-890 F143A): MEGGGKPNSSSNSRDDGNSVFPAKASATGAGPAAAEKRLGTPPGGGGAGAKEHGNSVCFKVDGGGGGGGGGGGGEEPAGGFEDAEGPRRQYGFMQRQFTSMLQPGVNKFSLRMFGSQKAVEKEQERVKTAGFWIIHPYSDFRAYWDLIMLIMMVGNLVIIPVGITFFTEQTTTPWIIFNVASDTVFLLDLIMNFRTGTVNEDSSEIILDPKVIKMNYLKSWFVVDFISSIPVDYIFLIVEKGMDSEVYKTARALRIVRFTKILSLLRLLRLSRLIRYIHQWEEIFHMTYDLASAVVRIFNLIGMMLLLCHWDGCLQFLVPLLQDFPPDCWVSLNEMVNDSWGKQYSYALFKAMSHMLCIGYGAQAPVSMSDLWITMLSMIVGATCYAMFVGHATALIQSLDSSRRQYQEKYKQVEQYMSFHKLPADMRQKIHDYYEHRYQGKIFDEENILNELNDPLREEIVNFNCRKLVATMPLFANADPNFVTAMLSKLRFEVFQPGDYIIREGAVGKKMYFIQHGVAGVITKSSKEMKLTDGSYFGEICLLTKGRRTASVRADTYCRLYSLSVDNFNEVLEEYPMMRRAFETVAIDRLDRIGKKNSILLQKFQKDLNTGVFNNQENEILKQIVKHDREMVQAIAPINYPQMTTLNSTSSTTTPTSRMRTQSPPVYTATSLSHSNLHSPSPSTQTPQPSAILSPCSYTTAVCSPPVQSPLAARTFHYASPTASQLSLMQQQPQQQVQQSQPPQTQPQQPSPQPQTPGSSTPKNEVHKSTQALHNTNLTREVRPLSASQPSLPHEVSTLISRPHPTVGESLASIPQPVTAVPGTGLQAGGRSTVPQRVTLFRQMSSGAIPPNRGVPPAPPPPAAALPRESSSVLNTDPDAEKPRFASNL
Briefly: Whole-cell patch-clamp, Ih inhibition, HCN1 mutant. The class given is cell-based. How it is done: (§1) To elucidate the contribution of these residues to the inhibitory effect of ivabradine, we introduced mutations in ivabradine-interacting residues, converting them into alanines (Fig. 2F).
(§2) Full-length WT or mutant human HCN1 were cloned into the pcDNA3.1 vector for electrophysiological experiments. HeLa cells (from Thermo Fisher Scientific) cultured in Dulbecco's modified Eagle's medium (from Solarbio Life Science) + 10% fetal bovine serum (from ExCell Bio) at 37 °C were transiently transfected using lipofection, and whole-cell patch-clamp recordings were obtained using the Axon 200B amplifier (Molecular Devices) and clampex software (https://www.moleculardevices.com/products/axon-patch-clamp-system/acquisition-and-analysis-software/pclamp-software-suite), 36 to 48 h posttransfection. The extracellular solution contained 110 mM NaCl, 0.5 mM MgCl2, 1.8 mM CaCl2, 5 mM Hepes, 30 mM KCl, and pH was adjusted to 7.4 with NaOH, while the pipette solution contained 130 mM KCl, 10 mM NaCl, 0.5 mM MgCl2, 1 mM EGTA, 5 mM Hepes, and pH was adjusted to 7.4 with KOH. The recordings were performed at room temperature, voltage-clamp mode, and filtered at 1 kHz. The sampling frequency was 10 kHz, and the series resistance was limited to 5 MΩ. To elicit channel currents, step pulses of 3 s duration ranging from −180 mV to −30 mV were applied, followed by a step to −180 mV lasting 1.25 s. The tail currents evoked by the second step were used to determine the voltage-dependent activation curves and calculate the midpoint of activation potential (V1/2). The half maximal inhibitory concentration (IC50) of drugs was determined by recording currents at a pulse of −140 mV and analyzing current amplitudes at varying drug concentrations. The IC50 value was calculated using the Hill equation.
Background: Patch clamp records ionic current or voltage across a cell membrane.

In the next assay the target is T2, HCN1 mutant W281A (Homo sapiens, UniProt O60741, W281A).
T2 construct: Full-length WT or mutant human HCN1 were cloned into the pcDNA3.1 vector; expressed in transfected cells; host or cells: HeLa cells, pcDNA3.1 vector, transient lipofection
T2 sequence (O60741 1-890 W281A): T1 sequence (O60741 1-890 F143A) with A143F, W281A
The assay is described as follows: Whole-cell patch-clamp, Ih inhibition, HCN1 mutant. The class given is cell-based. Particulars: electrophysiological recordings, read-out: IC50 (Fig. 2F). The method, then:
as §1, §2

We go through one molecule from PMC11530593, “Structural mechanism of human HCN1 hyperpolarization-activated channel inhibition by ivabradine” (The Journal of Biological Chemistry, 2024).

Molecules are shown by their SMILES. Substitutions are numbered along the chain they refer to.

The term IC50 denotes the concentration needed to halve the response being measured. Consider `COc1cc2c(cc1OC)CC(=O)N(CCCN(C)C[C@H]1Cc3cc(OC)c(OC)cc31)CC2` [ivabradine], for which the IC50 amounted to 32.9 µM on HCN1 mutant F143A (F143A mutant, electrophysiological recordings, read-out: IC50 (Fig. 2F)) and 17.4 µM at HCN1 mutant W281A. Moreover, the “change in potency by mutation” value on HCN1 mutant F143A (F143A versus WT) is listed as “dramatic decrease”.
